In PubChem BioAssay (NCI):
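Five concentrations, 48 hours, 96-well plates. Abbreviation: GI50, concentration required for 50% inhibition of growth. TGI marks complete inhibition of growth.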

Legend:
Assay in all cases: growth of human tumour cells (NCI), 48 h
BT-549 breast = system: BT-549 breast
DU-145 prostate = system: DU-145 prostate
HCT-116 colon = system: HCT-116 colon
NCI-H460 lung = system: NCI-H460 lung
SF-295 CNS = system: SF-295 CNS
SF-539 CNS = system: SF-539 CNS
TK-10 renal = system: TK-10 renal
U251 CNS = system: U251 CNS
UACC-257 melanoma = system: UACC-257 melanoma
UACC-62 melanoma = system: UACC-62 melanoma

Row | SMILES | GI50 (BT-549 breast) [µM] | TGI (BT-549 breast) [µM] | GI50 (DU-145 prostate) [µM] | TGI (DU-145 prostate) [µM] | GI50 (HCT-116 colon) [µM] | TGI (HCT-116 colon) [µM] | GI50 (NCI-H460 lung) [µM] | TGI (NCI-H460 lung) [µM] | GI50 (SF-295 CNS) [µM] | TGI (SF-295 CNS) [µM] | GI50 (SF-539 CNS) [µM] | TGI (SF-539 CNS) [µM] | GI50 (TK-10 renal) [µM] | TGI (TK-10 renal) [µM] | GI50 (U251 CNS) [µM] | TGI (U251 CNS) [µM] | GI50 (UACC-257 melanoma) [µM] | TGI (UACC-257 melanoma) [µM] | GI50 (UACC-62 melanoma) [µM] | TGI (UACC-62 melanoma) [µM]
1 | CC(C)=CCc1c(O)cc(/C=C/c2cc(O)c3c(c2)C[C@@H]2C(C)(C)[C@H](O)[C@H](O)C[C@@]2(C)O3)cc1O | 0.0553 | > 7.23 | 1.96 | > 10 | 0.00519 | > 10 | 0.00146 | > 4.36 | < 0.001 | 0.00118 | 0.00532 | 2.2 | 0.479 | > 3.1 | 0.0533 | > 5.28 | 2.62 | > 10 | 0.0462 | 0.325
2 | CN1CCN(c2ccc3c4c(cccc24)C(=O)N(CCN2CCN(CCCN4CCN(CCN5C(=O)c6cccc7c(N8CCN(C)CC8)ccc(c67)C5=O)CC4)CC2)C3=O)CC1 | 9.92 | 19.7 | 7.19 | 17 | 1.23 | 5.79 | 5.54 | 33.5 | 5.75 | 13.7 | 7.67 | 16.9 | 9.38 | 21.1 | 7.43 | 14.3 | 10.2 | 18.4 | 8.45 | 15.7
3 | COc1ccc(O)c(C(=O)c2ccc(C(=O)O[C@@H]3CCCNC[C@H]3NC(=O)c3ccncc3)cc2)c1F | 0.212 | 3.36 | 1.47 | > 25 | 1.04 | > 25 | 0.869 | > 25 | 0.77 | > 25 | 0.0852 | 0.779 | 3.51 | > 25 | 1.17 | > 22.7 | – | – | 1.51 | > 25
4 | CCC[C@H](N[C@@H]1CCc2cc(F)cc(F)c2C1)C(=O)Nc1cn(C(C)(C)CNCC(C)(C)C)cn1 | 11.5 | 37.8 | 29.7 | > 100 | 5.31 | 20.2 | 19.5 | 53.8 | 15.4 | 42.5 | 16.7 | 34.6 | 21.8 | 72.7 | 15.7 | 58.7 | 13.2 | 37.7 | 15.6 | 34.1
5 | CCc1c2c(nc3cc4c(cc13)OCO4)-c1cc3c(c(=O)n1C2)COC(=O)[C@@]3(CC)OC(=O)CN | < 0.01 | < 0.0366 | < 0.01 | 0.0426 | 0.0214 | 0.0666 | < 0.01 | < 0.01 | < 0.01 | < 0.0166 | < 0.01 | < 0.01 | 0.178 | 20 | < 0.01 | 0.124 | < 0.0154 | 0.286 | < 0.022 | –
6 | CO[C@@H]1[C@@H](OC2OC(C)C(OC3CC(C)(O)C(OC(=O)CC(C)C)C(C)O3)C(N(C)C)C2O)[C@@H](CC=O)C[C@@H](C)C(=O)/C=C/C2O[C@H]2C[C@@H](C)OC(=O)C[C@H]1OC(C)=O (stereo partly specified) | – | 40.5 | – | 28 | – | 30.8 | – | 41.8 | – | 48.2 | – | 38.5 | – | 50.9 | – | 35.7 | – | 34 | – | 60.1
7 | O=C1c2ccccc2C(=O)N1c1ccc(S(=O)(=O)Nc2ncccn2)cc1 | > 100 | > 100 | > 100 | > 100 | > 100 | > 100 | > 100 | > 100 | > 100 | > 100 | > 100 | > 100 | > 100 | > 100 | > 100 | > 100 | > 100 | > 100 | > 100 | > 100
8 | CC(=O)OC1COC(S[As](C)C)C(OC(C)=O)C1OC(C)=O (stereo unspecified) | 0.755 | 6.22 | 0.0701 | 0.902 | 0.17 | 2.04 | 1.05 | 14.5 | 2.19 | 8.31 | 0.0713 | 0.315 | 0.08 | 0.832 | 0.639 | 5.24 | 2.61 | – | 0.285 | 1.61
9 | C(=C1c2ccccc2-c2ccccc21)c1ccccn1 | 8.85 | 53.1 | 16.1 | 44.9 | 5.07 | 24.6 | 5.87 | 23 | 1.57 | 5.97 | 11.7 | 50.2 | 19 | 57.3 | 6.22 | 70.9 | 20.1 | > 100 | 5.8 | > 100
